Measurements reported in patent publication US20120076899A1, “SHELF STABLE MONATIN SWEETENED BEVERAGE” (Cargill, Incorporated, priority 2009, published 2012).

Key:
[1] = Total indole concentrations following sunlight exposure; type: physicochemical
Method: Synthetic R,R-monatin containing approximately 95.4% R,R-monatin monopotassium salt (dry basis) was obtained from CSIR (Modderfontein, South Africa). About 39 mg/L of this monatin was placed in a buffered solution at a pH of about 2.8-3.0 comprising 9 mM citric acid-trisodium citrate in high purity water and preserved with about 150 mg/L sodium benzoate. To some samples 200 ppm SANMELIN™ AO-3000 enzymatically modified isoquercitrin (EMIQ) (San-Ei Gen F.F.I.—Osaka, Japan) was added. Dissolved O2 levels were either increased by bubbling compressed air or reduced by bubbling N2 (99.9% purity) through these samples until the target O2 concentrations were achieved. Dissolved O2 levels were determined at 20° C. using a FOXY fluorescence quenching O2 analyzer from Ocean Optics (Dunedin, Fla.). Samples were stored in clear, glass ampules (˜10 mL) after O2 adjustment and heat-sealed to create an air-tight enclosure. The samples were then either stored in the dark, or exposed to sunlight. The exposure to sunlight is a much harsher environment for photosensitive compounds than the fluorescent light box because sunlight is many times brighter (˜100,000 Lux vs. ˜2200 Lux) and produces higher-energy, UV radiation. In order to test samples under these alternate conditions, samples were stored outside and exposed to sunlight where temperatures varied from about 5 to about 30 degrees C. and light intensity ranged from 0 at night to about 100,000 Lux on a clear day. Duplicate samples were analyzed weekly for total indole concentrations via the following method.
(§1) Total indole (monatin and its intramolecular rearrangement products, monatin lactone and monatin lactam) concentrations were quantified by reversed phase HPLC at 40° C. using an Agilent Zorbax Eclipse C18 column with UV detection at 280 nm by PDA. The compounds were eluted by a gradient mobile phase consisting of (A) 1:1 methanol and acetonitrile (v:v) with 0.3% formic acid and 10 mM ammonium formate and (B) 0.3% formic acid in water with 10 mM ammonium formate. The integrated peak areas for the three (3) compounds were expressed in terms of monatin concentration (mg/L) based on a standard curve prepared for monatin. Thus, the extinction coefficient for monatin was applied to estimate concentrations of monatin lactone and monatin lactam since standards for these compounds were unavailable.

[2] = Total indole concentrations over range of dissolved oxygen concentrations (light box storage); type: physicochemical; conditions: continuous light ~2200 lux, 28° C., pH 2.8-3.0
Method: Synthetic R,R-monatin containing approximately 95.4% R,R-monatin monopotassium salt (dry basis) was obtained from CSIR (Modderfontein, South Africa). About 100 mg/L of this monatin was placed in a buffered solution at a pH of about 2.8-3.0 comprising 9 mM citric acid-trisodium citrate in high purity water and preserved with about 150 mg/L sodium benzoate. Dissolved O2 levels were either increased by bubbling compressed air or reduced by bubbling N2 (99.9% purity) through these samples until the target O2 concentrations were achieved. Dissolved O2 levels were determined at 20° C. using a FOXY fluorescence quenching O2 analyzer from Ocean Optics (Dunedin, Fla.). Samples were stored in clear, glass ampules (˜10 mL) after O2 adjustment and heat-sealed to create an air-tight enclosure. The samples were then exposed to light continuously (24 hours per day) in a light box (˜2200 lux light intensity) configured with a rotating carousel to provide even illumination. The source of light was provided by ultra-violet (UV) light wavelength transmitting bulbs and standard fluorescent bulbs. The heat produced by the lights warmed the samples to a temperature of about 28° C. Duplicate samples of each treatment were analyzed weekly for total indole concentrations via the following method.
as §1

Compound: NC(CC(O)(Cc1c[nH]c2ccccc12)C(=O)O)C(=O)O (stereo not drawn) [R,R-monatin, 2-hydroxy-2-(indol-3-ylmethyl)-4-aminoglutaric acid]
- Total Indole Concentration ([1]; 8.3 mg/L O2, 0 ppm EMIQ, Dark, 0 d): 38.5 mg/L
- Total Indole Concentration ([1]; 8.3 mg/L O2, 0 ppm EMIQ, Dark, 7 d): 39.4 mg/L
- Total Indole Concentration ([1]; 8.3 mg/L O2, 0 ppm EMIQ, Dark, 14 d): 38.0 mg/L
- Total Indole Concentration ([1]; 8.3 mg/L O2, 0 ppm EMIQ, Dark, 21 d): 36.9 mg/L
- Total Indole Concentration ([1]; 8.3 mg/L O2, 0 ppm EMIQ, Dark, 28 d): 39.1 mg/L
- Total Indole Concentration ([1]; 8.3 mg/L O2, 0 ppm EMIQ, Light (sunlight), 0 d): 38.5 mg/L
- Total Indole Concentration ([1]; 8.3 mg/L O2, 0 ppm EMIQ, Light (sunlight), 7 d): 0.0 mg/L
- Total Indole Concentration ([1]; 8.3 mg/L O2, 0 ppm EMIQ, Light (sunlight), 14 d): 0.0 mg/L
- Total Indole Concentration ([1]; 8.3 mg/L O2, 0 ppm EMIQ, Light (sunlight), 21 d): 0.0 mg/L
- Total Indole Concentration ([1]; 8.3 mg/L O2, 0 ppm EMIQ, Light (sunlight), 28 d): 0.0 mg/L
- Total Indole Concentration ([1]; <0.5 mg/L O2, 0 ppm EMIQ, Light (sunlight), 0 d): 38.5 mg/L
- Total Indole Concentration ([1]; <0.5 mg/L O2, 0 ppm EMIQ, Light (sunlight), 7 d): 39.7 mg/L
- Total Indole Concentration ([1]; <0.5 mg/L O2, 0 ppm EMIQ, Light (sunlight), 14 d): 34.4 mg/L
- Total Indole Concentration ([1]; <0.5 mg/L O2, 0 ppm EMIQ, Light (sunlight), 21 d): 32.0 mg/L
- Total Indole Concentration ([1]; <0.5 mg/L O2, 0 ppm EMIQ, Light (sunlight), 28 d): 30.6 mg/L
- Total Indole Concentration ([1]; <0.5 mg/L O2, 200 ppm EMIQ, Light (sunlight), 0 d): 38.5 mg/L
- Total Indole Concentration ([1]; <0.5 mg/L O2, 200 ppm EMIQ, Light (sunlight), 7 d): 36.0 mg/L
- Total Indole Concentration ([1]; <0.5 mg/L O2, 200 ppm EMIQ, Light (sunlight), 14 d): 38.4 mg/L
- Total Indole Concentration ([1]; <0.5 mg/L O2, 200 ppm EMIQ, Light (sunlight), 21 d): 32.8 mg/L
- Total Indole Concentration ([1]; <0.5 mg/L O2, 200 ppm EMIQ, Light (sunlight), 28 d): 36.7 mg/L
- Total Indole Concentration ([2]; 0.4 mg/L O2, 0 Days): 104.0 mg/L
- Total Indole Concentration ([2]; 0.4 mg/L O2, 7 Days): 98.7 mg/L
- Total Indole Concentration ([2]; 0.4 mg/L O2, 14 Days): 102.9 mg/L
- Total Indole Concentration ([2]; 0.4 mg/L O2, 21 Days): 97.5 mg/L
- Total Indole Concentration ([2]; 0.4 mg/L O2, 28 Days): 96.2 mg/L
- Total Indole Concentration ([2]; 1.5 mg/L O2, 0 Days): 104.0 mg/L
- Total Indole Concentration ([2]; 1.5 mg/L O2, 7 Days): 97.1 mg/L
- Total Indole Concentration ([2]; 1.5 mg/L O2, 14 Days): 90.6 mg/L
- Total Indole Concentration ([2]; 1.5 mg/L O2, 21 Days): 93.3 mg/L
- Total Indole Concentration ([2]; 1.5 mg/L O2, 28 Days): 76.0 mg/L
- Total Indole Concentration ([2]; 4.0 mg/L O2, 0 Days): 104.0 mg/L
- Total Indole Concentration ([2]; 4.0 mg/L O2, 7 Days): 94.6 mg/L
- Total Indole Concentration ([2]; 4.0 mg/L O2, 14 Days): 71.3 mg/L
- Total Indole Concentration ([2]; 4.0 mg/L O2, 21 Days): 58.0 mg/L
- Total Indole Concentration ([2]; 4.0 mg/L O2, 28 Days): 14.6 mg/L
- Total Indole Concentration ([2]; 6.5 mg/L O2, 0 Days): 104.0 mg/L
- Total Indole Concentration ([2]; 6.5 mg/L O2, 7 Days): 97.0 mg/L
- Total Indole Concentration ([2]; 6.5 mg/L O2, 14 Days): 75.7 mg/L
- Total Indole Concentration ([2]; 6.5 mg/L O2, 21 Days): 54.7 mg/L
- Total Indole Concentration ([2]; 6.5 mg/L O2, 28 Days): 0.0 mg/L
- Total Indole Concentration ([2]; 8.3 mg/L O2, 0 Days): 104.0 mg/L
- Total Indole Concentration ([2]; 8.3 mg/L O2, 7 Days): 89.6 mg/L
- Total Indole Concentration ([2]; 8.3 mg/L O2, 14 Days): 49.9 mg/L
- Total Indole Concentration ([2]; 8.3 mg/L O2, 21 Days): 21.3 mg/L
- Total Indole Concentration ([2]; 8.3 mg/L O2, 28 Days): 0.0 mg/L
